How the values were obtained:
Format in all cases: cell-based
[1] = tested on: mutant ERα (Y537S, D538G, L536R); experiment: Inhibition of mutant ERα-mediated transcription; details: MCF-7 cells, 100 nM, 24 hours
[2] = tested on: MCF-7 cells expressing doxycycline-inducible D538G mutant ERα; experiment: Inhibition of MCF-7 cell proliferation driven by D538G mutant ERα; details: Homo sapiens, MCF7, 120 h, read-out: Inhibition of Proliferation IC50 (nM ± SD)
[3] = tested on: MCF-7 cells expressing doxycycline-inducible Y537S mutant ERα; experiment: cells; details: Homo sapiens, MCF7, 120 h, read-out: Inhibition of Proliferation IC50 (nM ± SD)
[4] = tested on: MCF-7 cells expressing doxycycline-inducible L536R mutant ERα; experiment: Inhibition of MCF-7 cell proliferation driven by L536R mutant ERα; details: Homo sapiens, MCF7, 120 h, read-out: Inhibition of Proliferation IC50 (nM ± SD)
[5] = tested on: MCF-7 cells expressing doxycycline-inducible WT ERα; experiment: Inhibition of MCF-7 cell proliferation driven by WT ERα; details: Homo sapiens, MCF7, 120 h, read-out: Inhibition of Proliferation IC50 (nM ± SD)

Structure (SMILES)	inhibition of mutant ER transcriptional activity (in words) [1]	IC50 [2]	IC50 [3]	IC50 [4]	IC50 [5]
C[C@]12C[C@H](c3ccc(OCCCCCS(=O)(=O)CCCC(F)(F)C(F)(F)F)cc3)[C@@H]3c4ccc(O)cc4CC[C@H]3[C@@H]1CC[C@@H]2O [RU58668]	block much of the activity of all three mutants				
C[C@]12CC[C@@H]3c4ccc(O)cc4C[C@@H](CCCCCCCCC[S+]([O-])CCCC(F)(F)C(F)(F)F)[C@H]3[C@@H]1CC[C@@H]2O (some centres unmarked) [fulvestrant]		5.9 ± 0.6 nM	16 ± 1.8 nM	2.6 ± 0.4 nM	0.31 ± 0.03 nM

From PMC6469989 (ACS chemical biology, 2018)
